One experiment deals with T1, hQ23 (HEK-293 cell line stably transfected with one of the members of the KCNQ family) (Homo sapiens, UniProt O43525+O43526).
T1 construct: expressed in transfected cells; host or cells: HEK-293, stably transfected
T1 sequence (O43526 whole entry): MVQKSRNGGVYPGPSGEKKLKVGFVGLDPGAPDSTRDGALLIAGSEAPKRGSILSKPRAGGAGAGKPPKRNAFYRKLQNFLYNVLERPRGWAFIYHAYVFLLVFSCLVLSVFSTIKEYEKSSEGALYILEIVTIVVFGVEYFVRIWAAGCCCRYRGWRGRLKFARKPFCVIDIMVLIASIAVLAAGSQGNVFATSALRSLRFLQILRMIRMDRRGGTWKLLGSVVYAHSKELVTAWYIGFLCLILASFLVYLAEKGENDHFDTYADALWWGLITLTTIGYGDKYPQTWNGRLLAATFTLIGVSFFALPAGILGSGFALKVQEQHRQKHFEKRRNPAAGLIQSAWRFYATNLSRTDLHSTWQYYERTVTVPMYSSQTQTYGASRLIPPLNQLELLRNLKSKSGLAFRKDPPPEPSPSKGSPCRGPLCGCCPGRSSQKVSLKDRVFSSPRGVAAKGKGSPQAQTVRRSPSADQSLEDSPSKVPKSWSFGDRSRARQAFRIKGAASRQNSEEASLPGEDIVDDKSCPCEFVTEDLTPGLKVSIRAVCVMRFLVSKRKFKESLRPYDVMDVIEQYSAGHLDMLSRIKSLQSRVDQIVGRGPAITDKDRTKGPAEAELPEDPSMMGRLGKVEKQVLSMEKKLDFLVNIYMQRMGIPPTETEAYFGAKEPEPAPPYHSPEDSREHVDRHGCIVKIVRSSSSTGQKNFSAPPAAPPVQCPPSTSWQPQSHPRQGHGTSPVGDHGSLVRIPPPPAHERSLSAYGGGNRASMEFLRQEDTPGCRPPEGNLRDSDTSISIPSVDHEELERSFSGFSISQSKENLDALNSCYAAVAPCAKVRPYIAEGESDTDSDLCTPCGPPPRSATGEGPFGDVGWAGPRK
T1 sequence (O43525 whole entry): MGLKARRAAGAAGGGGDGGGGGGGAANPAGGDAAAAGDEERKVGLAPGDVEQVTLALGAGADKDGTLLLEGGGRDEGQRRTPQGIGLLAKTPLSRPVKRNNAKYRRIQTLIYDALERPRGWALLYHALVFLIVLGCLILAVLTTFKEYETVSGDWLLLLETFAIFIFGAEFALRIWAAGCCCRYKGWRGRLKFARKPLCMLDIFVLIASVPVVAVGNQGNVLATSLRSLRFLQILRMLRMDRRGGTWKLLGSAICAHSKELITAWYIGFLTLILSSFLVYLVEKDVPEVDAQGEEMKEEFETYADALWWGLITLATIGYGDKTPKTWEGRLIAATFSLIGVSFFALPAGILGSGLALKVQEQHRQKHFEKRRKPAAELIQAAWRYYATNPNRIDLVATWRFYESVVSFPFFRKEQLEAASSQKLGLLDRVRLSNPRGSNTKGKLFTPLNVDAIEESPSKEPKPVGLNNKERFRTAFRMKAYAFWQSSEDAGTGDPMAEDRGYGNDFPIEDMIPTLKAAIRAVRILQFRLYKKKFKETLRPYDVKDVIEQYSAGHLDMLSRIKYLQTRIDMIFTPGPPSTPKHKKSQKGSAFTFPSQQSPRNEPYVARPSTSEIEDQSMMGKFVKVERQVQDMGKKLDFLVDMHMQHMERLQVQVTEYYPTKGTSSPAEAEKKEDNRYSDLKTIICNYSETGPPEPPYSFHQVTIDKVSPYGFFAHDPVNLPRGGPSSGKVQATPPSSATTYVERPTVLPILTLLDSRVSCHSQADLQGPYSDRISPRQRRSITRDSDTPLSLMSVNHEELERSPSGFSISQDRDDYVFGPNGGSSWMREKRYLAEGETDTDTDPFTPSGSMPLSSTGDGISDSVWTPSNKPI
The experiment in a line: Thallium flux assay for KCNQ channel blockers (FLIPR, BTC dye). The format is cell-based. The conditions noted are these: Table 2; thallium flux, HEK-293. The essentials:
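HEK-293 cells stably expressing a KCNQ member, loaded with BTC-AM (2 μM) in chloride-free buffer, pH 7.3; compounds added at 1% DMSO, then Tl2SO4 stimulus on FLIPR (488/540 nm, 60 s). Minimal active concentration set at ≥4 SD above negative control; IC50 from 10-point 1:3 series, single-site logistic fit versus the positive-control blocker.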
One may read the EC50 as the concentration needed to bring the measured effect to its halfway point. High values mean weaker potency, low ones greater potency. Regarding `CC1CCC(Nc2ncc(C(=O)NCc3cccc4ccccc34)c(C3(c4ccccc4)CC3)n2)CC1` (stereo not drawn) [Example 36, 5-pyrimidinecarboxamide, 2-[(4-methylcyclohexyl)amino]-N-(1-naphthalenylmethyl)-4-(1-phenylcyclopropyl)-], the EC50 was found to be 586 nM.

`CC1CCN(c2ncc(C(=O)NC(C)c3ccc(F)cc3)c(C3(c4ccccc4)CC3)n2)CC1` (stereo not drawn) [Example 51, 5-pyrimidinecarboxamide, N-[1-(4-fluorophenyl)ethyl]-2-(4-methyl-1-piperidinyl)-4-(1-phenylcyclopropyl)-]: the EC50 was 672 nM.

`CCN(Cc1ccccc1)C(=O)c1cnc(N2CCC(C)CC2)nc1C1(c2ccccc2)CC1` [Example 31, 5-pyrimidinecarboxamide, N-ethyl-2-(4-methyl-1-piperidinyl)-4-(1-phenylcyclopropyl)-N-(phenylmethyl)-] had a concentration for a half-maximal effect (EC50) of 475 nM.

As to `CC1CCC(Nc2ncc(C(=O)NCc3cc(F)cc(C(F)(F)F)c3)c(C3(c4ccccc4)CC3)n2)CC1` (stereo not drawn) [Example 44, 5-pyrimidinecarboxamide, N-[[3-fluoro-5-(trifluoromethyl)phenyl]methyl]-2-[(4-methylcyclohexyl)amino]-4-(1-phenylcyclopropyl)-], the concentration giving a half-maximal response (EC50) came out at 44 nM.

In the case of `CC1CCN(c2ncc(C(=O)NCc3ccc(F)cc3F)c(C3(c4ccccc4)CC3)n2)CC1` [Example 43, 5-pyrimidinecarboxamide, N-[(2,4-difluorophenyl)methyl]-2-(4-methyl-1-piperidinyl)-4-(1-phenylcyclopropyl)-], the 50% effective concentration (EC50) turned out to be 919 nM.

Still in this experiment, the particulars now being: Table 3; thallium flux, HEK-293.
`CC1CCCN(c2ncc(C(=O)NC(C)c3ccc(F)cc3)c(C3(c4ccc(Cl)cc4)CCC3)n2)C1` (stereo not drawn) [Example 68, 5-pyrimidinecarboxamide, 4-[1-(4-chlorophenyl)cyclobutyl]-N-[1-(4-fluorophenyl)ethyl]-2-(3-methyl-1-piperidinyl)-]: the response was half-maximal at 128 nM (EC50).

In the case of `CN(C)CCNc1ncc(C(=O)N(C)CCc2ccccc2)c(C2(c3ccc(Cl)cc3)CCC2)n1` [Example 55, 5-pyrimidinecarboxamide, 4-[1-(4-chlorophenyl)cyclobutyl]-2-[[2-(dimethylamino)ethyl]amino]-N-methyl-N-(2-phenylethyl)-], the concentration giving a half-maximal response (EC50) worked out at 321 nM.

The same experiment, now with this note: hQ23 cells, thallium flux.
As for `CC1CCN(c2ncc(C(=O)N(C)Cc3ccccc3)c(C3(c4ccc(Cl)cc4)CCCC3)n2)CC1` [Example 140, 5-pyrimidinecarboxamide, 4-[1-(4-chlorophenyl)cyclopentyl]-N-methyl-2-(4-methyl-1-piperidinyl)-N-(phenylmethyl)-], a half-maximal effect (EC50) was put at 246 nM.

In turn, `O=C(NCc1ccc(Cl)cc1Cl)c1cnc(NC2CCCC2)nc1C1(c2ccccc2)CCCC1` [Example 115, 5-pyrimidinecarboxamide, 2-(cyclopentylamino)-N-[(2,4-dichlorophenyl)methyl]-4-(1-phenylcyclopentyl)-] registered an EC50 of 136 nM.

Compound `CN(CCc1ccccc1)C(=O)c1cnc(N2CCCC2)nc1C1(c2ccccc2)CCCC1` [Example 79, 5-pyrimidinecarboxamide, N-methyl-4-(1-phenylcyclopentyl)-N-(2-phenylethyl)-2-(1-pyrrolidinyl)-] registered an EC50 of 444 nM.

`O=C(NCc1cccc2ccccc12)c1cnc(N2CCCC2)nc1C1(c2ccc(Cl)cc2)CCCC1` [Example 167, 5-pyrimidinecarboxamide, 4-[1-(4-chlorophenyl)cyclopentyl]-N-(1-naphthalenylmethyl)-2-(1-pyrrolidinyl)-] had an EC50 of 142 nM.

`CC1CCCN(c2ncc(C(=O)N3CCc4ccccc4C3)c(C3(c4ccc(F)cc4)CCCC3)n2)C1` (stereo not drawn) [Example 211, isoquinoline, 2-[[4-[1-(4-fluorophenyl)cyclopentyl]-2-(3-methyl-1-piperidinyl)-5-pyrimidinyl]carbonyl]-1,2,3,4-tetrahydro-] showed a half-maximal effective concentration (EC50) of 272 nM.

Turning to `CC1CCN(c2ncc(C(=O)N3CCCC(C)C3)c(C3(c4ccccc4)CCCC3)n2)CC1` (stereo not drawn) [Example 78, piperidine, 3-methyl-1-[[2-(4-methyl-1-piperidinyl)-4-(1-phenylcyclopentyl)-5-pyrimidinyl]carbonyl]-], the EC50 amounted to 775 nM.

For `O=C(NCc1ccc2c(c1)OCO2)c1cnc(N2CCCC2)nc1C1(c2ccc(Cl)cc2)CCCC1` [Example 152, 5-pyrimidinecarboxamide, N-(1,3-benzodioxol-5-ylmethyl)-4-[1-(4-chlorophenyl)cyclopentyl]-2-(1-pyrrolidinyl)-], a half-maximal effect (EC50) was put at 107 nM.

`CN1CCC(N(C)c2ncc(C(=O)NCc3ccc(Cl)cc3Cl)c(C3(c4ccc(Cl)cc4)CCCC3)n2)CC1` [Example 182, 5-pyrimidinecarboxamide, 4-[1-(4-chlorophenyl)cyclopentyl]-N-[(2,4-dichlorophenyl)methyl]-2-[methyl(1-methyl-4-piperidinyl)amino]-] yielded a half-maximal effective concentration (EC50) of 67 nM.

Take `O=C(NCc1ccc(Cl)cc1Cl)c1cnc(N2CCCC2)nc1C1(c2ccccc2)CCCC1` [Example 111, 5-pyrimidinecarboxamide, N-[(2,4-dichlorophenyl)methyl]-4-(1-phenylcyclopentyl)-2-(1-pyrrolidinyl)-]: the concentration giving a half-maximal response (EC50) worked out at 192 nM.

`CC1CCN(c2ncc(C(=O)NCc3ccc4c(c3)OCO4)c(C3(c4ccc(Cl)cc4)CCCC3)n2)CC1` [Example 154, 5-pyrimidinecarboxamide, N-(1,3-benzodioxol-5-ylmethyl)-4-[1-(4-chlorophenyl)cyclopentyl]-2-(4-methyl-1-piperidinyl)-] registered an EC50 of 10 nM.

`CC1CCN(c2ncc(C(=O)NCc3ccc(F)cc3F)c(C3(c4ccc(Cl)cc4)CCCC3)n2)CC1` [Example 188, 5-pyrimidinecarboxamide, 4-[1-(4-chlorophenyl)cyclopentyl]-N-[(2,4-difluorophenyl)methyl]-2-(4-methyl-1-piperidinyl)-] gave an EC50 of 16 nM.

`CC1CCC(Nc2ncc(C(=O)NCc3ccc4c(c3)OCO4)c(C3(c4ccc(Cl)cc4)CCCC3)n2)CC1` (stereo not drawn) [Example 151, 5-pyrimidinecarboxamide, N-(1,3-benzodioxol-5-ylmethyl)-4-[1-(4-chlorophenyl)cyclopentyl]-2-[(4-methylcyclohexyl)amino]-] showed an EC50 of 119 nM.

As for `O=C(NCc1cccc2ccccc12)c1cnc(NC2CC2)nc1C1(c2ccc(Cl)cc2)CCCC1` [Example 165, 5-pyrimidinecarboxamide, 4-[1-(4-chlorophenyl)cyclopentyl]-2-(cyclopropylamino)-N-(1-naphthalenylmethyl)-], the EC50 was 630 nM.

For the compound `CC1CCN(c2ncc(C(=O)NCc3ccc4c(c3)OCO4)c(C3(c4ccccc4)CCCC3)n2)CC1` [Example 93, 5-pyrimidinecarboxamide, N-(1,3-benzodioxol-5-ylmethyl)-2-(4-methyl-1-piperidinyl)-4-(1-phenylcyclopentyl)-], the concentration giving a half-maximal response (EC50) was found to be 37 nM.

On to `CC1CCCN(c2ncc(C(=O)NCc3ccc(Cl)cc3Cl)c(C3(c4ccc(Cl)cc4)CCCC3)n2)C1` (stereo not drawn) [Example 180, 5-pyrimidinecarboxamide, 4-[1-(4-chlorophenyl)cyclopentyl]-N-[(2,4-dichlorophenyl)methyl]-2-(3-methyl-1-piperidinyl)-], for which the 50% effective concentration (EC50) is 10 nM.

The compound `CC1CCN(c2ncc(C(=O)NCc3ccc(C(F)(F)F)cc3)c(C3(c4ccc(Cl)cc4)CCCC3)n2)CC1` [Example 203, 5-pyrimidinecarboxamide, 4-[1-(4-chlorophenyl)cyclopentyl]-2-(4-methyl-1-piperidinyl)-N-[[4-(trifluoromethyl)phenyl]methyl]-] had a 50% effective concentration (EC50) of 32 nM.

The experiment is the same for the next values; noted with them: hQ23 cells, thallium flux assay.
For `O=C(NCc1ccc(Cl)cc1Cl)c1cnc(NC2CCCC2)nc1C1(c2ccc(F)cc2)CCCC1` [Example 266, 5-pyrimidinecarboxamide, 2-(cyclopentylamino)-N-[(2,4-dichlorophenyl)methyl]-4-[1-(4-fluorophenyl)cyclopentyl]-], the EC50 worked out at 27 nM.

As for `O=C(NCc1ccc2c(c1)OCO2)c1cnc(N2CCCC2)nc1C1(c2ccc(F)cc2)CCCC1` [Example 235, 5-pyrimidinecarboxamide, N-(1,3-benzodioxol-5-ylmethyl)-4-[1-(4-fluorophenyl)cyclopentyl]-2-(1-pyrrolidinyl)-], a half-maximal effect (EC50) was put at 214 nM.

Regarding `CC1CCC(Nc2ncc(C(=O)NC(C)c3ccc(F)cc3)c(C3(c4ccc(F)cc4)CCCC3)n2)CC1` (stereo not drawn) [Example 281, 5-pyrimidinecarboxamide, 4-[1-(4-fluorophenyl)cyclopentyl]-N-[1-(4-fluorophenyl)ethyl]-2-[(4-methylcyclohexyl)amino]-], the concentration giving a half-maximal response (EC50) amounted to 118 nM.

Compound `CC1CCN(c2ncc(C(=O)NCc3ccc(C(F)(F)F)cc3)c(C3(c4ccc(F)cc4)CCCC3)n2)CC1` [Example 288, 5-pyrimidinecarboxamide, 4-[1-(4-fluorophenyl)cyclopentyl]-2-(4-methyl-1-piperidinyl)-N-[[4-(trifluoromethyl)phenyl]methyl]-] displayed an EC50 of 75 nM.

As for `CC(NC(=O)c1cnc(NC2CCCC2)nc1C1(c2ccc(F)cc2)CCCC1)c1cccc2ccccc12` (stereo not drawn) [Example 247, 5-pyrimidinecarboxamide, 2-(cyclopentylamino)-4-[1-(4-fluorophenyl)cyclopentyl]-N-[1-(1-naphthalenyl)ethyl]-], the midpoint of the response, the EC50, lay at 92 nM.

For `CC(NC(=O)c1cnc(N2CCN(C)CC2)nc1C1(c2ccc(F)cc2)CCCC1)c1cccc2ccccc12` (stereo not drawn) [Example 243, 5-pyrimidinecarboxamide, 4-[1-(4-fluorophenyl)cyclopentyl]-2-(4-methyl-1-piperazinyl)-N-[1-(1-naphthalenyl)ethyl]-], the EC50 worked out at 852 nM.

Regarding `CC(NC(=O)c1cnc(N2CCN(C)CC2)nc1C1(c2ccc(F)cc2)CCCC1)c1ccc(F)cc1` (stereo not drawn) [Example 283, 5-pyrimidinecarboxamide, 4-[1-(4-fluorophenyl)cyclopentyl]-N-[1-(4-fluorophenyl)ethyl]-2-(4-methyl-1-piperazinyl)-], a half-maximal response (EC50) required 752 nM.

The values above are taken from patent US7091202B2, “4-arylspirocycloalkyl-2-aminopyrimidine carboxamide KCNQ potassium channel modulators” (Bristol-Myers Squibb Company, priority 2004, dated 2006).
